Laboratory results: patent US20220112199A1, “EGFR INHIBITOR FOR MEDICAL USE” (Hoffmann-La Roche Inc., priority 2019, published 2022)

Target: T1, EGFR TMLRCS (T790M/L858R/C797S) in BaF3-TMLRCS cell line (Homo sapiens, UniProt P00533, C797S/L858R/T790M)
T1 construct: host or cells: BaF3 (BaF3-TMLRCS cell line)
Assay: HTRF Phospho EGFR TMLRCS Assay (Cellular)
Format: cell-based
Details: BaF3-TMLRCS cells, 4 hours incubation
Procedure: HTRF Phospho EGFR TMLRCS Assay (Cellular)
BaF3-TMLRCS cell line were obtained from Crownbio (San Diego, Calif., USA). Cells were maintained at 37° C., 5% CO2 in RPMI ATCC (Gibco 31870)+2 mM Glutamine+0.5 μg/ml Puromycin supplemented with 10% fetal bovine serum (FBS) (Gibco).
Cells are transferred as above to Greiner Bio-One, Nr. 784-08 micro-titerplate at 20000 cells/well in 12.5 μl of growth medium/well after the plates had been pre-filled with 12.5 nl of DMSO solutions of the to be tested compounds (in dose response) or DMSO only. After spinning the plates at 300 ×g for 30 seconds the cells were incubated for 4 hours at 37 C, 5% CO2, 95% humidity. The cells were lysed by adding to the compound mix 4 μl/well of the supplemented lysis buffer (Cis-bio, Phospho-EGFR HTRF kit, 64EG1PEH), followed by incubation for 30 min at room temperature with shaking (400 rpm). The plates were then frozen and stored overnight at −80 C. […] The lidded plates were then incubated for 4 h at room temperature before reading the fluorescence emission at 616 and 665 nm using an Envision reader (Perkin Elmer). Data was analyzed in similar fashion as above using the normalized ratio of the 665 to 616 signals multiplied by 10000.

T1 sequence (P00533 25-1210 T790M/C797S/L858R): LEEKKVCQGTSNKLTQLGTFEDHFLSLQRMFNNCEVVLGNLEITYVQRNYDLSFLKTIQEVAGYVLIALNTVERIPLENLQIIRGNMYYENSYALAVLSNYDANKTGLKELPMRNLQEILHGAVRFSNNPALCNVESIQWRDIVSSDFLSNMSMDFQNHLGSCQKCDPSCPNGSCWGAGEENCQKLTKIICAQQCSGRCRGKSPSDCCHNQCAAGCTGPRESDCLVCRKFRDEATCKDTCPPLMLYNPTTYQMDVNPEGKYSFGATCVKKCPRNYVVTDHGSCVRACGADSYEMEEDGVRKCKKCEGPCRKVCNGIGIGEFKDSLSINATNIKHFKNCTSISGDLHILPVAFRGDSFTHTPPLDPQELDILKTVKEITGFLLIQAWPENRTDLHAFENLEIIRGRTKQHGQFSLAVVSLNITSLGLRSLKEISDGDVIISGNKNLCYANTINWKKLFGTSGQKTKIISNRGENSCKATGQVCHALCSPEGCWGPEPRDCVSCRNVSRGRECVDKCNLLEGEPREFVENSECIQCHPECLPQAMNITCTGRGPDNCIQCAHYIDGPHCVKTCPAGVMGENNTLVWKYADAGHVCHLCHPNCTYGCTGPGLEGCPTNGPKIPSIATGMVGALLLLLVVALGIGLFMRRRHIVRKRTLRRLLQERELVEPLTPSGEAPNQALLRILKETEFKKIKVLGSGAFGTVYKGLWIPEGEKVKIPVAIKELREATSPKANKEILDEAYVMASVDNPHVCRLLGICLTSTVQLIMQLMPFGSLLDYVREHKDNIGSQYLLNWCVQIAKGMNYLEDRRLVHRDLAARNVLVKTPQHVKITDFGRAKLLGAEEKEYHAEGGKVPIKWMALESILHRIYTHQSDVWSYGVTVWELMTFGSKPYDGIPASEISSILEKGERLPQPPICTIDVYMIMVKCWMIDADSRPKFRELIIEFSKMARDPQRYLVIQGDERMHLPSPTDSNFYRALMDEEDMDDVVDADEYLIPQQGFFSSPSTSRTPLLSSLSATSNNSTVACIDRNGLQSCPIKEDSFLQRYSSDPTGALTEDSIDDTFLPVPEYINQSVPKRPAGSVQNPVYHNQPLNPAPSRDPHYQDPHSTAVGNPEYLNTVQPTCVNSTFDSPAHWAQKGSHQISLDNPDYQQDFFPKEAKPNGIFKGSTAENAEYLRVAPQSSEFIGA

- IC50: 14 nM
Structure (SMILES): O=C(Nc1nccs1)C(c1ncn2c1CCC2)N1Cc2c(cc(C#Cc3ccc(CN4CCC(O)CC4)cc3)cc2C(F)(F)F)C1=O (racemic) [Example 1, (2RS)-2-(6,7-Dihydro-5H-pyrrolo[1,2-c]imidazol-1-yl)-2-[6-[2-[4-[(4-hydroxy-1-piperidyl)methyl]phenyl]ethynyl]-1-oxo-4-(trifluoromethyl)isoindolin-2-yl]-N-thiazol-2-yl-acetamide]
